Our source for the IC50 values is patent publication US20260070945A1, “MACROCYCLIC IMMUNOMODULATORS” (Bristol-Myers Squibb Company, priority 2022, published 2026).

Molecules are shown by their SMILES. Where a SMILES comes first, the peptide text is derived from it. Bridges are numbered along the chain shown (N, C = ends). [ ]: non-standard residue; d: D form. ξ: configuration not given here. Phe(4-COOH) = N[C@@H](Cc1ccc(C(=O)O)cc1)C(=O)O; Bip = N[C@@H](Cc1ccc(-c2ccccc2)cc1)C(=O)O; Phe(3-Me) = Cc1cccc(C[C@H](N)C(=O)O)c1; Phe(4-F) = N[C@@H](Cc1ccc(F)cc1)C(=O)O; Val(3-OH) = CC(C)(O)[C@H](N)C(=O)O; Cha = N[C@@H](CC1CCCCC1)C(=O)O; Thr(3ξ) = CC(O)[C@H](N)C(=O)O; NMeNle = CCCC[C@H](NC)C(=O)O; NMeA = CN[C@@H](C)C(=O)O; Aun = NCCCCCCCCCCC(=O)O; Dab = NCC[C@H](N)C(=O)O; AEEA = NCCOCCOCC(=O)O

By IC50 is commonly meant the midpoint of a concentration-inhibition curve.

For this test, the target named is T1, PD-1/PD-L1 interaction (PE-labeled human PD-L1-Ig binding to Jurkat cell line over-expressing human PD-1) (Homo sapiens, UniProt Q15116).
T1 construct: expressed in transfected cells; host or cells: Jurkat
T1 sequence (Q15116 25-288): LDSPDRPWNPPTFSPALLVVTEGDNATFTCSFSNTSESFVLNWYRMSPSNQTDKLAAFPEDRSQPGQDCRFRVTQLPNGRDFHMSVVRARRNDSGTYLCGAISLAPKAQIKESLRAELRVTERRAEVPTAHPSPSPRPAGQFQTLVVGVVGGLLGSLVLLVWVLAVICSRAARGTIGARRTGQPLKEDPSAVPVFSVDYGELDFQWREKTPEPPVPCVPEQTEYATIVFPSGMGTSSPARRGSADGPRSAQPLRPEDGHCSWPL
Briefly: Jurkat-PD-1 Cell Binding High-Content Screening Assay (CBA). The note with it: PE-labeled PD-L1-Ig 20 nM final, Jurkat-hPD-1 cells; read-out: Jurkat HPD1 PDL1 IC50. Summed up: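 Jurkat cells overexpressing human PD-1 (8×10^3/well, DMEM + 10% FCS) preincubated with compound 2 h at 37 °C, then PE-labelled human PD-L1-Ig (20 nM final) for 1 h. Cells fixed in paraformaldehyde with Hoechst 33342; bound PD-L1 quantified by high-content imaging.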
With `CCCC[C@H]1C(=O)N[C@@H](Cc2ccc(C(=O)O)cc2)C(=O)N[C@@H](CC(=O)O)C(=O)N[C@@H](Cc2cccc(C)c2)C(=O)N[C@@H](Cc2ccc(C(=O)O)cc2)C(=O)N[C@@H](Cc2ccc(-c3ccccc3)cc2)C(=O)N[C@@H](Cc2ccc(C(=O)O)cc2)C(=O)N(C)[C@@H](C)C(=O)N[C@H](CC(C)C)C(=O)N[C@@H](CCN)C(=O)N[C@@H](CC2CCCCC2)C(=O)N[C@@H](C(C)C)C(=O)N[C@@H](CCC(=O)O)C(=O)N[C@H](C(=O)N[C@@H](CCN)C(=O)NCCOCCOCC(=O)NCCCCCCCCCCC(=O)O)CSCC(=O)N1C` [Example 2543] ({CH2CO}-[NMeNle][Phe(4-COOH)]D[Phe(3-Me)][Phe(4-COOH)][Bip][Phe(4-COOH)][NMeA][dL][Dab][Cha]VEC[Dab][AEEA][Aun]-OH; thioether N-14), the IC50 is 0.032 µM.
For `Cc1cccc(C[C@@H]2NC(=O)[C@H](CC(=O)O)NC(=O)[C@H](Cc3ccc(C(=O)O)cc3)NC(=O)[C@H](C(C)O)NC(=O)CSC[C@@H](C(=O)N[C@@H](CCN)C(=O)NCCOCCOCC(=O)NCCCCCCCCCCC(=O)O)NC(=O)[C@H](Cc3cnc[nH]3)NC(=O)[C@H](C(C)(C)O)NC(=O)[C@H](CC3CCCCC3)NC(=O)[C@H](CCN)NC(=O)[C@@H](CC(C)C)NC(=O)[C@H](C)N(C)C(=O)[C@H](Cc3ccc(C(=O)O)cc3)NC(=O)[C@H](Cc3ccc(-c4ccccc4)cc3)NC(=O)[C@H](Cc3ccc(C(=O)O)cc3)NC2=O)c1` (stereo partly drawn) [Example 2545] ({CH2CO}-[Thr(3ξ)][Phe(4-COOH)]D[Phe(3-Me)][Phe(4-COOH)][Bip][Phe(4-COOH)][NMeA][dL][Dab][Cha][Val(3-OH)]HC[Dab][AEEA][Aun]-OH; thioether N-14), the IC50 worked out at 0.0131 µM.
As to `Cc1cccc(C[C@@H]2NC(=O)[C@H](CC(=O)O)NC(=O)[C@H](Cc3ccc(C(=O)O)cc3)NC(=O)[C@H](CCN)NC(=O)CSC[C@@H](C(=O)N[C@@H](CCN)C(=O)NCCOCCOCC(=O)NCCCCCCCCCCC(=O)O)NC(=O)[C@H](CCC(=O)O)NC(=O)[C@H](C(C)C)NC(=O)[C@H](CC3CCCCC3)NC(=O)[C@H](CCN)NC(=O)[C@@H](CC(C)C)NC(=O)[C@H](C)N(C)C(=O)[C@H](Cc3ccc(C(=O)O)cc3)NC(=O)[C@H](Cc3ccc(-c4ccccc4)cc3)NC(=O)[C@H](Cc3ccc(C(=O)O)cc3)NC2=O)c1` [Example 2546] ({CH2CO}-[Dab][Phe(4-COOH)]D[Phe(3-Me)][Phe(4-COOH)][Bip][Phe(4-COOH)][NMeA][dL][Dab][Cha]VEC[Dab][AEEA][Aun]-OH; thioether N-14), the IC50 was 0.0117 µM.
To `Cc1cccc(C[C@@H]2NC(=O)[C@H](CC(=O)O)NC(=O)[C@H](Cc3ccc(C(=O)O)cc3)NC(=O)[C@H](C(C)O)NC(=O)CSC[C@@H](C(=O)N[C@@H](CCN)C(=O)NCCOCCOCC(=O)NCCCCCCCCCCC(=O)O)NC(=O)[C@H](CCC(=O)O)NC(=O)[C@H](C(C)C)NC(=O)[C@H](CC3CCCCC3)NC(=O)[C@H](CCN)NC(=O)[C@@H](CC(C)C)NC(=O)[C@H](C)N(C)C(=O)[C@H](Cc3ccc(C(=O)O)cc3)NC(=O)[C@H](Cc3ccc(-c4ccccc4)cc3)NC(=O)[C@H](Cc3ccc(C(=O)O)cc3)NC2=O)c1` (stereo partly drawn) [Example 2547] ({CH2CO}-[Thr(3ξ)][Phe(4-COOH)]D[Phe(3-Me)][Phe(4-COOH)][Bip][Phe(4-COOH)][NMeA][dL][Dab][Cha]VEC[Dab][AEEA][Aun]-OH; thioether N-14) belongs 0.0149 µM; to `Cc1cccc(C[C@@H]2NC(=O)[C@H](CC(=O)O)NC(=O)[C@H](Cc3ccc(C(=O)O)cc3)NC(=O)[C@H](Cc3ccc(F)cc3)NC(=O)CSC[C@@H](C(=O)N[C@@H](CCN)C(=O)NCCOCCOCC(=O)NCCCCCCCCCCC(=O)O)NC(=O)[C@H](CCC(=O)O)NC(=O)[C@H](C(C)C)NC(=O)[C@H](CC3CCCCC3)NC(=O)[C@H](CCN)NC(=O)[C@@H](CC(C)C)NC(=O)[C@H](C)N(C)C(=O)[C@H](Cc3ccc(C(=O)O)cc3)NC(=O)[C@H](Cc3ccc(-c4ccccc4)cc3)NC(=O)[C@H](Cc3ccc(C(=O)O)cc3)NC2=O)c1` [Example 2548] ({CH2CO}-[Phe(4-F)][Phe(4-COOH)]D[Phe(3-Me)][Phe(4-COOH)][Bip][Phe(4-COOH)][NMeA][dL][Dab][Cha]VEC[Dab][AEEA][Aun]-OH; thioether N-14), 0.0196 µM.
